Drawing on ChEMBL document CHEMBL1149421, “Potent 4-arylalkyl-substituted 3-isothiazolol GABA(A) competitive/noncompetitive antagonists: synthesis and pharmacology” (J Med Chem, 2006), this text covers Ki and Emax for ten molecules.

Experiment [1] has as its target GABA A receptor alpha-5/beta-3/gamma-2 (Rattus norvegicus, UniProt P18508+P19969+P63079). Briefly: Displacement of [3H]muscimol from GABAA alpha-1-beta-3-gamma-2S in rat brain membrane. The format is cell membranes. (In general: Loss of bound radioactivity is the signal in a displacement assay; it reports binding, not function.)
The target in experiment [2] is T1, GABA-A receptor; alpha-1/beta-3/gamma-2 (Homo sapiens, UniProt P14867+P18507+P28472).
T1 sequence (P14867 whole entry): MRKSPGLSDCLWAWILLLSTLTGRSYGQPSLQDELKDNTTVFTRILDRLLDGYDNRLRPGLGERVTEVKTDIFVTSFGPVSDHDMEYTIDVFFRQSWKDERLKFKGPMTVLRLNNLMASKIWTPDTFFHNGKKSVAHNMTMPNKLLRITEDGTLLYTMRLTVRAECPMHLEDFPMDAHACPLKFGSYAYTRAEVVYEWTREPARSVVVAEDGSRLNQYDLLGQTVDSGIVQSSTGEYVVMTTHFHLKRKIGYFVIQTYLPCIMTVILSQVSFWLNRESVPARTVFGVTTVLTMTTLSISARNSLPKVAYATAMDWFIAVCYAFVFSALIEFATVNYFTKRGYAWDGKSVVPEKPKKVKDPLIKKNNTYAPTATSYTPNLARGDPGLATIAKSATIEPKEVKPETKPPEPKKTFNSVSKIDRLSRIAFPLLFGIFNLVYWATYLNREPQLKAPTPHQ
T1 sequence (P18507 whole entry): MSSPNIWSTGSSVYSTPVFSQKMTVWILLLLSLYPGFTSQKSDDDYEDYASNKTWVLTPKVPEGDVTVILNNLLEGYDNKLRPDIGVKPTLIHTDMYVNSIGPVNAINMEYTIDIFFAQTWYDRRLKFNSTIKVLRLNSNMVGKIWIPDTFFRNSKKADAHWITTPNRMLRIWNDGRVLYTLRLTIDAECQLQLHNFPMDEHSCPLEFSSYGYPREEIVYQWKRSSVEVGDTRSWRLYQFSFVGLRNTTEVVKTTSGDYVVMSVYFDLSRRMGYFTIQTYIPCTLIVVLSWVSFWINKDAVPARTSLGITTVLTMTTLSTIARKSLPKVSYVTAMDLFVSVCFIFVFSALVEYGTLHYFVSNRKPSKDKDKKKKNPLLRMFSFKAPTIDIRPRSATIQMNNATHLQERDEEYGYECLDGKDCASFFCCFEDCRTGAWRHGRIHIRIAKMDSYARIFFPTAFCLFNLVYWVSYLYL
T1 sequence (P28472 whole entry): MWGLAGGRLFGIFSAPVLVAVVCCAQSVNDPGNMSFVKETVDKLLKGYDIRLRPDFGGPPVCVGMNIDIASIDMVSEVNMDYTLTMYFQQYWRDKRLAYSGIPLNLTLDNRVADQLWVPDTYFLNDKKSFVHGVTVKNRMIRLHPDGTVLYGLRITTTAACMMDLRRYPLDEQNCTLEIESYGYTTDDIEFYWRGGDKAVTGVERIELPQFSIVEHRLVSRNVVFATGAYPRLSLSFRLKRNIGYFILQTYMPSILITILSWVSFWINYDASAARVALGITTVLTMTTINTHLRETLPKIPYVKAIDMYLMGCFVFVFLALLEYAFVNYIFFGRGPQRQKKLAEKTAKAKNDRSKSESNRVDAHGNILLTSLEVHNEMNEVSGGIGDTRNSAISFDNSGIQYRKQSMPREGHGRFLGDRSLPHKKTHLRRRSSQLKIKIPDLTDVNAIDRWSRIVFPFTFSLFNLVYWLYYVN
Nature of the experiment: Binding affinity at human GABAA alpha-1-beta-3-gamma-2S expressed in Xenopus oocytes by voltage-clamp electrophysiology. It is filed as functional, cell-based, Oocyte.

The nature of experiment [3]: Binding affinity at human GABAA alpha-4-beta-3-delta expressed in Xenopus oocytes by voltage-clamp electrophysiology. The format is functional, cell-based. The note with it: oocyte.
Experiment [4] in a line: Maximal effect at GABA alpha-4-beta-3-delta expressed in Xenopus oocytes. The following applies: Homo sapiens, Oocyte. The format is functional.
Experiment [5] has as its target GABA-A receptor; alpha-1/beta-3/gamma-2 (Homo sapiens) (UniProt P14867+P18507+P28472). Briefly: Maximal effect at GABA alpha-1-beta-3-gamma-2S expressed in Xenopus oocytes. The format is functional, cell-based. The following applies: Oocyte.

GABA A receptor alpha-5/beta-3/gamma-2, sequence (P18508 whole entry): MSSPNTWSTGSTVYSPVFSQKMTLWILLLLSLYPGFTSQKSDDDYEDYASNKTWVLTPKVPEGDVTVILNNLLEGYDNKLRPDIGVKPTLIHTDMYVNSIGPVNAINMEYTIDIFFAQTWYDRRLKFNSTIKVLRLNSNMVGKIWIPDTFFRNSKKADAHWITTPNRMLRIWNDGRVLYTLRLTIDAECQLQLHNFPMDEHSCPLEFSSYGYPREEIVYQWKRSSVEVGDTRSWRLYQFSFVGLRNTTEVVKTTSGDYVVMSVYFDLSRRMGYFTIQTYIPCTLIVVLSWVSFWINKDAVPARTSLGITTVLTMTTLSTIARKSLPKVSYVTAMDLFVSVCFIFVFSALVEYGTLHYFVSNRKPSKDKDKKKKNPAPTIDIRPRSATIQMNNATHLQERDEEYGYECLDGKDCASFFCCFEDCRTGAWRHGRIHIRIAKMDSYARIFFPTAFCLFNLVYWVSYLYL
GABA A receptor alpha-5/beta-3/gamma-2, sequence (P19969 whole entry): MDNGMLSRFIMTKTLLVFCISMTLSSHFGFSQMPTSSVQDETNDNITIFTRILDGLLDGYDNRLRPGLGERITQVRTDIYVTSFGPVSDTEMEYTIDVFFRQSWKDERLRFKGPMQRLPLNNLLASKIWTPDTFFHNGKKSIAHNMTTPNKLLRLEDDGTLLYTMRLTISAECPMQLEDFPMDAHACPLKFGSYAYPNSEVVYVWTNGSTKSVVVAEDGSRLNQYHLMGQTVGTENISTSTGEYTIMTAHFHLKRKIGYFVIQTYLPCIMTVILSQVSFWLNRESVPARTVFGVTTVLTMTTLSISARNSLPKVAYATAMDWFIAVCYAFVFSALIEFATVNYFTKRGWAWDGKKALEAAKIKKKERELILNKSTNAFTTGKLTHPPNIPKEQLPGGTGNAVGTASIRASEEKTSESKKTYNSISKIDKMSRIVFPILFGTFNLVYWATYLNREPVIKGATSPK
GABA A receptor alpha-5/beta-3/gamma-2, sequence (P63079 whole entry): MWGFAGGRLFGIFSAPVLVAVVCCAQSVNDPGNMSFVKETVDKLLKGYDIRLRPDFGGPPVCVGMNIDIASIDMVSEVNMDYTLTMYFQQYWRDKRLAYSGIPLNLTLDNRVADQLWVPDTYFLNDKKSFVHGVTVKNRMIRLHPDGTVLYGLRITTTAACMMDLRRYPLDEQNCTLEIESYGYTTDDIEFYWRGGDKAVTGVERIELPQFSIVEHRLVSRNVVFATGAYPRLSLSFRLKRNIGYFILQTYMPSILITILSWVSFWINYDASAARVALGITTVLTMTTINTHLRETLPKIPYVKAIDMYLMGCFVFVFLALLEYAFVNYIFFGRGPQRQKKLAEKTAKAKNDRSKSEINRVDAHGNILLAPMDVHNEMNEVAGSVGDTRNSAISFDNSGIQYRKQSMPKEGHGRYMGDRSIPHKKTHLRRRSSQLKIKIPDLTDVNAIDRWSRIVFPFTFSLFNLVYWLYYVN

As to `Oc1nsc(C2CCNCC2)c1CCC(c1ccccc1)c1ccccc1`, the Ki in experiment [1] was found to be 9.6 nM; in experiment [2], 1.2 nM; in experiment [3] it was 0.35 nM. This molecule displayed an Emax in experiment [4] of 40%.
For the molecule `Oc1nsc(C2CCNCC2)c1Cc1ccccc1`, the Ki is 331 nM in experiment [1] and 465 nM in experiment [2].
For `Oc1cc(C2CCNCC2)sn1`, the results for the Ki in experiment [1] and in experiment [2] were 1870 nM and 25700 nM, respectively.
Taken in the same sequence, the figures for `Oc1nsc(C2CCNCC2)c1Cc1ccc2ccccc2c1` were 5.2 nM and 22 nM.
The matching figures for `CCCc1c(C2CCNCC2)s[nH]c1=O`: 440 nM and 230 nM.
`O=c1[nH]sc(C2CCNCC2)c1CC(c1ccccc1)c1ccccc1`: the figures for the Ki in experiment [1] and in experiment [2] were 388 nM and 720 nM, respectively.
For `Oc1nsc(C2CCNCC2)c1Cc1ccc2ccccc2c1Br`, the figures for the Ki in experiment [1] and in experiment [2] were 1.8 nM and 3 nM, respectively.
On to `Cc1c(O)nsc1C1CCNCC1`, for which the Ki worked out at 2200 nM in experiment [1] and 2880 nM in experiment [2].
For the molecule `Oc1noc(C2CCNCC2)c1CCC(c1ccccc1)c1ccccc1`, the Ki came out at 68 nM in experiment [1], 20 nM in experiment [2] and 2.3 nM in experiment [3]. In addition, the maximum response (Emax) in experiment [5] came out at 90%.
On to `Oc1noc(C2CCNCC2)c1Cc1ccc2ccccc2c1`, for which the Ki in experiment [1] was found to be 49 nM; in experiment [2], 370 nM.

The Ki is the dissociation constant of the complex between target and ligand, obtained from inhibition or displacement. For orientation: Emax means the greatest response seen or fitted, relative to the assay's reference.
